Measured values from publication PMC12747932, “Crystal structures of Kif2A complexed with WDR5 reveal the structural plasticity of WIN-S7 sites” (Acta Biochimica et Biophysica Sinica, 2025).

Target: T1, human WDR5 (residues 24–334) (Homo sapiens, UniProt P61964)
T1 construct: human WDR5 seven tandem WD-40 domain (residues 24–334); GST (N, cleaved yes); made in house; host or cells: Escherichia coli BL21 (DE3)
Test: ITC assay of Kif2A peptides titrated into WDR5
Conditions: wild-type WDR5 0.05 mM, peptide approx. 1 mM, 20 mM Tris-HCl, 200 mM NaCl, pH 7.5, 20°C, mean±SD of a minimum of two experiments, N.D. = not detectable binding
Excerpt: The DNA fragment encoding the human WDR5 seven tandem WD-40 domain (residues 24–334) was amplified via PCR from the human brain and bone marrow cDNA library and cloned and inserted into the pGEX-4T1 vector, which was modified to include an N-terminal GST tag and a TEV cleavage site (ENLYFQ/GSHM) (where ‘/’ denotes the cleavage site). The Y191F variant of WDR5 was generated using a MutanBEST kit (TaKaRa, Dalian, China) and verified via DNA sequencing. Proteins were expressed in Escherichia coli BL21 (DE3) cells (Novagen, Darmstadt, Germany) cultured in Luria-Bertani medium at 37°C. Protein expression was induced with 0.2 mM isopropyl β-D-1-thiogalactopyranoside (IPTG) once the optical density at 600 nm (OD600) reached 0.8, and the cultures were shifted to 16°C for incubation for 18 h. The cells were harvested by centrifugation and resuspended in Buffer A (20 mM Tris-HCl, 1 M NaCl, pH 8.0) supplemented with DNase I (10 U) and cOmplete, EDTA-free Protease Inhibitor Cocktail (1 tablet dissolved in 1 mL of sterile water), after which they were lysed by ultrasonication. […]
ITC assays were performed on a Microcal PEAQ-ITC instrument (Malvern Panalytical, Westborough, USA) at 20°C as previously described. Protein concentrations were quantified by measuring the absorbance at 280 nm and diluted to 0.05 mM with Buffer E. Peptides were prepared at approximately 1 mM in the same buffer. […]

## GSAAARPSQ [Kif2A ^R117A, Kif2A 114–122 peptide with R117A mutation, …]
  KD, dissociation constant: completely abolished binding
